What was measured:
[1] = target: T1, Receptor-type tyrosine-protein kinase FLT3 (Homo sapiens, UniProt P36888); assay: Inhibition of FLT3 (unknown origin)
T1 sequence (P36888 whole entry): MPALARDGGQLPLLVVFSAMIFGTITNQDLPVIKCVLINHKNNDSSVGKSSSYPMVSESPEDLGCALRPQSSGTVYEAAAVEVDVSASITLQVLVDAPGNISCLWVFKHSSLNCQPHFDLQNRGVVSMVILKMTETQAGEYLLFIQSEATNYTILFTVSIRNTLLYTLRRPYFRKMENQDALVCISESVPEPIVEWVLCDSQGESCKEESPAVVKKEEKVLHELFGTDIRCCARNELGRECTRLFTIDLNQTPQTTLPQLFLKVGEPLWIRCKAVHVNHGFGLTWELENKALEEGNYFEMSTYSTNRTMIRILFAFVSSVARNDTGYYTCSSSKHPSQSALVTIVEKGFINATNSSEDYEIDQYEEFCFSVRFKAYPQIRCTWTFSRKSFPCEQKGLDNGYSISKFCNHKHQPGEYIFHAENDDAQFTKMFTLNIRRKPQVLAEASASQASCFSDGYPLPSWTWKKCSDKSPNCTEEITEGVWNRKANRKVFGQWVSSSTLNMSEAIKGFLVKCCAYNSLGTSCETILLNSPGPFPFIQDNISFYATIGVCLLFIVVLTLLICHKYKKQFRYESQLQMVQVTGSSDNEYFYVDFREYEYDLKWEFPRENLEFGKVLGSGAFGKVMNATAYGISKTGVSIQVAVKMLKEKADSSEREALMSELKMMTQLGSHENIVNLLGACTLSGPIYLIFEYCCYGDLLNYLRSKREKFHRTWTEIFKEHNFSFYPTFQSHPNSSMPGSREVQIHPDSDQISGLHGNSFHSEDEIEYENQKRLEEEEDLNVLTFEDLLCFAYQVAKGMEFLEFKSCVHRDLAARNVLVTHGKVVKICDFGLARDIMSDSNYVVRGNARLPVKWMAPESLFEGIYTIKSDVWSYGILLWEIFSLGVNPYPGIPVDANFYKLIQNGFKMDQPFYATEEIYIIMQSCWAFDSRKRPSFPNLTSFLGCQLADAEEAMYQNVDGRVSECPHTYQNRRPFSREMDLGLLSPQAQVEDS

MDA-MB-468 = assay: Growth inhibition of human MDA-MB-468 cells; assay type: functional
[2] = target: T2, Serine/threonine-protein kinase PLK4 (Homo sapiens, UniProt O00444); assay: Inhibition of PLK4 (unknown origin)
T2 sequence (O00444 whole entry): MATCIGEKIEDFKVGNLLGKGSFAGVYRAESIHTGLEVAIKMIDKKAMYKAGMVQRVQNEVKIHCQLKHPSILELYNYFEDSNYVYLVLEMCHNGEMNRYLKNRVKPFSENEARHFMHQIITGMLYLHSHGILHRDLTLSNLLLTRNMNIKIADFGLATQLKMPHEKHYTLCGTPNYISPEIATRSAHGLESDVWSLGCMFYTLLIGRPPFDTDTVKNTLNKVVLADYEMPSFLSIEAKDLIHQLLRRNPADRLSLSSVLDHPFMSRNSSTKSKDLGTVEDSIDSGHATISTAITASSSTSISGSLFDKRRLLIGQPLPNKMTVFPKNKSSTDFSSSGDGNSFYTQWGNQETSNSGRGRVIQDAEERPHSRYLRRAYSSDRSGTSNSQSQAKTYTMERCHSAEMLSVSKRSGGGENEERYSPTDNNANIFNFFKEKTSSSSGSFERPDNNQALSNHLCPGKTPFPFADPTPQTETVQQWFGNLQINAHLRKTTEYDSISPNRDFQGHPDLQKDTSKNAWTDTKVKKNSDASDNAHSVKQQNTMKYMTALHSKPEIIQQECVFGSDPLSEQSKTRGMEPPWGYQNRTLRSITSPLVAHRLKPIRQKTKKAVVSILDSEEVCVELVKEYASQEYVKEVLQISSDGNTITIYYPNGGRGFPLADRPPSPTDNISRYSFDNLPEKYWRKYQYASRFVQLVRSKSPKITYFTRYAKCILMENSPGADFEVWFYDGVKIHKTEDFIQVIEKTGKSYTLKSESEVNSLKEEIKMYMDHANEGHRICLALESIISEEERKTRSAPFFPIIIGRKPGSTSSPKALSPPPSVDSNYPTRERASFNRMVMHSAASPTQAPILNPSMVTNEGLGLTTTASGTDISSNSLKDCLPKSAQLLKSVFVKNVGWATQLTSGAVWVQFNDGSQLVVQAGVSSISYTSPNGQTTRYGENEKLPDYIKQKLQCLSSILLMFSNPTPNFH

[3] = target: Vascular endothelial growth factor receptor 2 (Homo sapiens, UniProt P35968); assay: Inhibition of KDR (unknown origin)
Aurora kinase A = target: T3, Aurora kinase A (Homo sapiens, UniProt O14965); assay: Inhibition of AURKA (unknown origin)
T3 sequence (O14965 whole entry): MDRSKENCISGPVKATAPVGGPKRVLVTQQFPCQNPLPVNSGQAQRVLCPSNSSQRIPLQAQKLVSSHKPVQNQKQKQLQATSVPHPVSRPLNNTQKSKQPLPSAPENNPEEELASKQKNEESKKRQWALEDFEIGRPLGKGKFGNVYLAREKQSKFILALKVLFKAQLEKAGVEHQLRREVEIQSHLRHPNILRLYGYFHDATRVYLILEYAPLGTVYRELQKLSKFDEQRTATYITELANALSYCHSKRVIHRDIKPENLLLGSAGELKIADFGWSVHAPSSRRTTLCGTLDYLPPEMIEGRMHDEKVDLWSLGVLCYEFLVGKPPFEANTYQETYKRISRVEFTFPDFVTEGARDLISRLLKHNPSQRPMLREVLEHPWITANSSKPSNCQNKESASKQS

Aurora kinase B = Aurora kinase B (Homo sapiens, UniProt Q96GD4); assay: Inhibition of AURKB (unknown origin)
MCF7 = assay: Growth inhibition of human MCF7; assay type: functional
HCC1954 = assay: Growth inhibition of human HCC1954; assay type: functional
[4] = Lipophilicity, log D of the compound at pH 7.4; assay type: physicochemical; conditions: buffer
CYP2C9 = CYP2C9 (Homo sapiens, UniProt P11712); assay: Inhibition of CYP2C9 (unknown origin) at 1 uM; assay type: ADME
CYP2C19 = CYP2C19 (Homo sapiens, UniProt P33261); assay: Inhibition of CYP2C19 (unknown origin) at 1 uM; assay type: ADME
CYP3A4 = CYP3A4 (Homo sapiens, UniProt P08684); assay: Inhibition of CYP3A4 (unknown origin) at 1 uM; assay type: ADME
[5] = Half life in mouse microsomes; assay type: ADME, Microsome
[6] = Half life in human microsomes; assay type: ADME, Microsome
[7] = Clearance in rat at 1 mg/kg, iv; assay type: ADME, organism-based; conditions: in vivo
[8] = Half life in rat at 1 mg/kg, iv; assay type: ADME, organism-based; conditions: in vivo
[9] = AUC in rat at 1 mg/kg, iv; assay type: ADME, organism-based; conditions: in vivo
[10] = AUC in rat at 5 mg/kg, po; assay type: ADME, organism-based; conditions: in vivo
[11] = Oral bioavailability in rat at 5 mg/kg; assay type: ADME, organism-based; conditions: in vivo
[12] = Cmax in mouse at 25 mg/kg, po; assay type: ADME, organism-based; set-up: dose 25 mg/kg, route oral; conditions: in vivo
[13] = AUC in mouse at 25 mg/kg, po; assay type: ADME, organism-based; conditions: in vivo

Chain of Aurora kinase B (Q96GD4 whole entry): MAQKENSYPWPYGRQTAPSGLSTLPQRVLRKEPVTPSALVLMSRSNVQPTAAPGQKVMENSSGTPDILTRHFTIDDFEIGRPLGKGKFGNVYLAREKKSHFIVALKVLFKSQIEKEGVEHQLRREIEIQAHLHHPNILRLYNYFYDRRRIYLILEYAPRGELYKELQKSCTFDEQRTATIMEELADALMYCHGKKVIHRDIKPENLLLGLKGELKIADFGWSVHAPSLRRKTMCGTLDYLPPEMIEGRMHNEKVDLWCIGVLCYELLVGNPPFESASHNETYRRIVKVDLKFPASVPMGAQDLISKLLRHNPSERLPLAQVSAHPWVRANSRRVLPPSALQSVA
Chain of CYP2C9 (P11712 whole entry): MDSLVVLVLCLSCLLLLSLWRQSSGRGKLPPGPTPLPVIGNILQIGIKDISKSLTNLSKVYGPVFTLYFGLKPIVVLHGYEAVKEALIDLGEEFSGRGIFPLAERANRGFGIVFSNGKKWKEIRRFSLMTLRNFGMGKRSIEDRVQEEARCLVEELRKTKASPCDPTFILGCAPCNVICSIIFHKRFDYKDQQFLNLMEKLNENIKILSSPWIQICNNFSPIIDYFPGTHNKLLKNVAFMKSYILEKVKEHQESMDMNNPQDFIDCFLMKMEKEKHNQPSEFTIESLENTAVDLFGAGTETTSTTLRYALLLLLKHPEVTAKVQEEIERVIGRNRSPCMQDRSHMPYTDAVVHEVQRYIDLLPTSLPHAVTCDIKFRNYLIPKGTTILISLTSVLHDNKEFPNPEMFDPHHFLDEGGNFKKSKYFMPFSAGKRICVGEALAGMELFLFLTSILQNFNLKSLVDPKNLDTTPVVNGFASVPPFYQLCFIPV
Chain of Vascular endothelial growth factor receptor 2 (P35968 whole entry): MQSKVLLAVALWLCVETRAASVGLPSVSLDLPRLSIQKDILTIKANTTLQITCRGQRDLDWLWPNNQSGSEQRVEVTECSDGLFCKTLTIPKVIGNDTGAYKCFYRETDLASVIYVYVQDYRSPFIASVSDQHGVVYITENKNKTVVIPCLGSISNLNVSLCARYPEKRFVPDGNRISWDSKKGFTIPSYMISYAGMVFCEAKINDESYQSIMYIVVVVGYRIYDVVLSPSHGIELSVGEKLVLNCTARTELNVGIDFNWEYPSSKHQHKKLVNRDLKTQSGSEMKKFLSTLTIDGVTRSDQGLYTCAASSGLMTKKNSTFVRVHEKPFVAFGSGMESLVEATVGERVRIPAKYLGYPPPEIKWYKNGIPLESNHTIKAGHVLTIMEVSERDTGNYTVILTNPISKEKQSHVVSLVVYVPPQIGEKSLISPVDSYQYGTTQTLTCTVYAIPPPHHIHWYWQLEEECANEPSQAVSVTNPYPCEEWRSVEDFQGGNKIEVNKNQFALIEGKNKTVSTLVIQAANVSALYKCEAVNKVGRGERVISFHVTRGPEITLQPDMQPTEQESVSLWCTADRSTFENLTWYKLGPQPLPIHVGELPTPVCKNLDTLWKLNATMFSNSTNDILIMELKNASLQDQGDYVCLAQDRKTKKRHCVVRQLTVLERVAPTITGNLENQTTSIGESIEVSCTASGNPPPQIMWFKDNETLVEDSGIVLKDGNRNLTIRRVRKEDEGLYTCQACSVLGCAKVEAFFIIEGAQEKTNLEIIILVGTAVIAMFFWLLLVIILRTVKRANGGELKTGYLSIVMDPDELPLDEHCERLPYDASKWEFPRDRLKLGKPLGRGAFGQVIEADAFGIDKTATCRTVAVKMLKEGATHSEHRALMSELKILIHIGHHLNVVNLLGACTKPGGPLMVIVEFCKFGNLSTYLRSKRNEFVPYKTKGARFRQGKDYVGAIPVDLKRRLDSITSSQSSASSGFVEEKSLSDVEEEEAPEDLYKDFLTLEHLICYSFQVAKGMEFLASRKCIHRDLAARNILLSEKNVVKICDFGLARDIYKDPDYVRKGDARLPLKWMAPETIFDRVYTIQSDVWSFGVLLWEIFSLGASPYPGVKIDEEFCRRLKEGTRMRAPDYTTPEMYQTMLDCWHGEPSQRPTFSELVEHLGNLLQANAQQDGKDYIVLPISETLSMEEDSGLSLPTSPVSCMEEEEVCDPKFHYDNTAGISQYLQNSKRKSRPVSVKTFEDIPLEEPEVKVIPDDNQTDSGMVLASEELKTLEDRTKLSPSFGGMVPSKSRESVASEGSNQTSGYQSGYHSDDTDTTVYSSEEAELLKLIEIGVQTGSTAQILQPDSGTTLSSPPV
Chain of CYP2C19 (P33261 whole entry): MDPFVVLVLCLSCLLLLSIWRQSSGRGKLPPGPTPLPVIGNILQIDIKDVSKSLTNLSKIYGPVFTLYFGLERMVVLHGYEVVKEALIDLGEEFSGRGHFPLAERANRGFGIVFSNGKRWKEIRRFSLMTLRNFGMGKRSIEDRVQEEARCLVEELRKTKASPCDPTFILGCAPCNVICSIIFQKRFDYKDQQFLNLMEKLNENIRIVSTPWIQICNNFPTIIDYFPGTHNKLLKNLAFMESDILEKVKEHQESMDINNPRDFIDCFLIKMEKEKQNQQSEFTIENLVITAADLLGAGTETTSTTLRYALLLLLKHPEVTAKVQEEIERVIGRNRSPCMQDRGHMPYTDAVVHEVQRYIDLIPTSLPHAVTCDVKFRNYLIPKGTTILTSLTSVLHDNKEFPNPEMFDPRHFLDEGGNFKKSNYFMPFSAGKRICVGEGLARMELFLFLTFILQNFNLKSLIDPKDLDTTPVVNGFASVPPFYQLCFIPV
Chain of CYP3A4 (P08684 whole entry): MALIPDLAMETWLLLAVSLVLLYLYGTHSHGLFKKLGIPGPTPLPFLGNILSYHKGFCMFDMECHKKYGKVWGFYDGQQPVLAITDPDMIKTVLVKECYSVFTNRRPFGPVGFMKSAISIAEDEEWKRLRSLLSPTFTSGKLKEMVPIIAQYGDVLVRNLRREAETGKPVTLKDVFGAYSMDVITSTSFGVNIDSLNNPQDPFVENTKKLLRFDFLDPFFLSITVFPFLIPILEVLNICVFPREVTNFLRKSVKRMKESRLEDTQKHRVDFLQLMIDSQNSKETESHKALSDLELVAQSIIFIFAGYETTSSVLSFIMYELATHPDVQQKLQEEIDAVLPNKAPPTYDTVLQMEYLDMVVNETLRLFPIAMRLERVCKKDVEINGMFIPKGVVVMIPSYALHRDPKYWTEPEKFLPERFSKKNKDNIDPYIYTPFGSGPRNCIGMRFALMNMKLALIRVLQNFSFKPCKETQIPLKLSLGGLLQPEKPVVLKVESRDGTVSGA

IC50 [1] | GI50 (MDA-MB-468) | IC50 [2] | logD [4] | half-life [5] | half-life [6] | Compound | also measured
240 nM | 890 nM | – | – | – | – | COc1ccc2c(c1)[C@]1(C[C@H]1c1ccc3c(-c4ccc(N5CCC(O)CC5)nc4)n[nH]c3c1)C(=O)N2 (racemic) | –
– | – | 540 nM | – | – | – | O=C1Nc2ccccc2C1=Cc1ccc2c(-c3cc4ccccc4[nH]3)n[nH]c2c1 | –
200 nM | 770 nM | 54 nM | – | – | – | CN1CCN(c2ccc(-c3n[nH]c4cc([C@@H]5C[C@@]56C(=O)Nc5ccccc56)ccc34)cn2)CC1 (racemic) | –
28 nM | 1300 to 3700 nM | 2.4 nM | 3.5 | 4 min | 13 min | COc1ccc2c(c1)C(=Cc1ccc3c(-c4ccc(N5CCN(C)CC5)nc4)n[nH]c3c1)C(=O)N2 | IC50 [3]: 630 nM; IC50 (Aurora kinase A): 700 nM; IC50 (Aurora kinase B): 35 nM; GI50 (MCF7): 5400 nM; GI50 (HCC1954): 5900 nM; inhibition at 1 µM (CYP2C9): 60%; inhibition at 1 µM (CYP2C19): 64%; inhibition at 1 µM (CYP3A4): 19%; clearance [7]: 178 mL/min/kg; half-life [8]: 78 min; AUC [9]: 94 ng·h/mL; AUC ([10]; read-out: AUC): 24 ng·h/mL; bioavailability [11]: 2%
77 nM | 68 nM | 1.2 nM | 4 | 28 min | > 60 min | COc1ccc2c(c1)[C@]1(C[C@H]1c1ccc3c(-c4ccc(N5CCN(CCO)CC5)cc4)n[nH]c3c1)C(=O)N2 | IC50 (Aurora kinase A): > 1000 nM; IC50 (Aurora kinase B): 7 nM; GI50 (MCF7): 1700 nM; GI50 (HCC1954): 3000 nM; inhibition at 1 µM (CYP2C9): 41%; inhibition at 1 µM (CYP2C19): 28%; inhibition at 1 µM (CYP3A4): 11%; Cmax ([12]; read-out: Cmax): 250 ng/mL; AUC [13]: 270 ng·h/mL; clearance [7]: 76.7 mL/min/kg; half-life [8]: 84 min; AUC [9]: 220 ng·h/mL; AUC ([10]; read-out: AUC): 130 ng·h/mL; bioavailability [11]: 11%
320 nM | 380 nM | 2.1 nM | – | – | – | COc1ccc2c(c1)[C@]1(C[C@H]1c1ccc3c(-c4ccnc(N5CCN(C)CC5)c4)n[nH]c3c1)C(=O)N2 (racemic) | –
– | – | – | 4.2 | 9 min | 16 min | COc1ccc2c(c1)[C@]1(C[C@H]1c1ccc3c(/C=C/c4ccc(N5CCN(C)CC5)nc4)n[nH]c3c1)C(=O)N2 | inhibition at 1 µM (CYP2C9): 73%; inhibition at 1 µM (CYP2C19): 93%; inhibition at 1 µM (CYP3A4): 76%; clearance [7]: 51.7 mL/min/kg; half-life [8]: 144 min; AUC [9]: 330 ng·h/mL; AUC ([10]; read-out: AUC): 250 ng·h/mL; bioavailability [11]: 15%
260 nM | 120 nM | 1 nM | – | – | – | COc1ccc2c(c1)[C@]1(C[C@H]1c1ccc3c(-c4ccc(N5CCN(C)CC5)nc4)n[nH]c3c1)C(=O)N2 (racemic) | –
44 nM | < 10 nM | 0.45 nM | 2.6 | > 60 min | 59 min | COc1ccc2c(c1)[C@]1(C[C@H]1c1ccc3c(-c4ccc(N5CCNCC5)cc4)n[nH]c3c1)C(=O)N2 | IC50 [3]: 5600 nM; IC50 (Aurora kinase A): > 1000 nM; IC50 (Aurora kinase B): 6.9 nM; GI50 (MCF7): < 10 nM; GI50 (HCC1954): 3600 nM; Cmax ([12]; BLD = below limit of detection): Bld
17 nM | 1300 nM | 13 nM | – | – | – | CN1CCN(c2ccc(-c3n[nH]c4cc(C=C5C(=O)Nc6ccccc65)ccc34)cn2)CC1 | –
50 nM | 7700 nM | 64 nM | – | – | – | O=C1Nc2ccccc2C1=Cc1ccc2c(-c3ccc[nH]3)n[nH]c2c1 | –
– | – | – | 4.5 | 4 min | 24 min | CN1CCN(c2ccc(/C=C/c3n[nH]c4cc(/C=C5/C(=O)Nc6ccccc65)ccc34)cn2)CC1 | inhibition at 1 µM (CYP2C9): 67%; inhibition at 1 µM (CYP2C19): 83%; inhibition at 1 µM (CYP3A4): 55%; Cmax ([12]; BLD = below limit of detection): Bld; clearance [7]: 107 mL/min/kg; half-life [8]: 306 min; AUC [9]: 170 ng·h/mL; AUC ([10]; BLD = below limit of detection): Bld; bioavailability [11]: < 1%
120 nM | 9900 nM | 220 nM | – | – | – | O=C1Nc2ccccc2C1=Cc1ccc2c(-c3ccncc3)n[nH]c2c1 | –
49 nM | 4600 nM | – | – | – | – | O=C1Nc2ccccc2/C1=C\c1ccc2cn[nH]c2c1 | –
6500 nM | 3700 nM | 30 nM | – | – | – | COc1ccc2c(c1)[C@@]1(C[C@@H]1c1ccc3c(-c4ccc(N5CCN(C)CC5)nc4)n[nH]c3c1)C(=O)N2 | IC50 [3]: > 50000 nM; IC50 (Aurora kinase A): > 1000 nM; IC50 (Aurora kinase B): 2100 nM; GI50 (MCF7): 5400 nM; GI50 (HCC1954): 5900 nM
98 nM | 600 nM | – | – | – | – | CN1CCN(c2ccc(-c3n[nH]c4cc([C@@H]5C[C@@]56C(=O)Nc5ccc(F)cc56)ccc34)cn2)CC1 | –
72 nM | – | 490 nM | – | – | – | O=C1Nc2ccccc2/C1=C\c1ccc2c(-c3nccs3)n[nH]c2c1 | –
27 nM | 5000 nM | 29 nM | – | – | – | O=C1Nc2ccccc2C1=Cc1ccc2c(-c3cccnc3)n[nH]c2c1 | –
230 nM | 5.8 nM | 1.2 nM | 3.4 | 43 min | > 60 min | COc1ccc2c(c1)[C@]1(C[C@H]1c1ccc3c(-c4ccc(N5C[C@@H](C)N[C@@H](C)C5)cc4)n[nH]c3c1)C(=O)N2 | IC50 [3]: > 5000 nM; IC50 (Aurora kinase A): > 1000 nM; IC50 (Aurora kinase B): 13 nM; GI50 (MCF7): 30 nM; GI50 (HCC1954): 8800 nM; inhibition at 1 µM (CYP2C9): 44%; inhibition at 1 µM (CYP2C19): 54%; inhibition at 1 µM (CYP3A4): -3%; Cmax ([12]; read-out: Cmax): 110 ng/mL; AUC [13]: 170 ng·h/mL
1200 nM | 670 nM | – | – | – | – | COc1ccc2c(c1)[C@]1(C[C@H]1c1ccc3c(-c4ccc(N5CCOCC5)nc4)n[nH]c3c1)C(=O)N2 (racemic) | –
